# Reference: US12077537B2 (Gilead Sciences, Inc., priority 2020, dated 2024)
# Test system: HIV-IIIb
# Assay: Antiviral assay in MT4 cells
# Type: cell-based
# Details: Human immunodeficiency virus 1, MT4, 120 h; MT-4 cells mixed with HIV-IIIb at m.o.i. 0.003; 5 days at 37° C.; CellTiter-Glo luminescence; 50% decrease in signal, a measure of HIV-1 replication
# Experimental: Antiviral Assay in MT4 Cells For the antiviral assay, 40 μL of a concentration required to achieve a final effective 1× test concentration of 3-fold serially diluted compound in culture medium with 10% FBS was added to each well of a 384-well plate (10 concentrations) in quadruplicate. MT-4 cells were next mixed with HIV-IIIb at an m.o.i of 0.003 for 1 hour, after which time 35 μL of virus/cell mixture (2000 cells) was immediately added to each well containing 40 μL of diluted compound. The plates were then incubated at 37° C. for 5 days. After 5 days of incubation, 25 μl of 2× concentrated CellTiter-Glom Reagent (catalog #G7571, Promega Biosciences, Inc., Madison, WI) was added to each well containing MT-4 cells. Cell lysis was carried out by incubating at room temperature for 10 min and then chemiluminescence was read.
row,EC50,Structure (SMILES)
1,7990 nM,"O=C(Cn1nc(C(F)F)c2c1C(F)(F)CCC2(F)F)N[C@H](Cc1cc(F)cc(F)c1)c1nc2ncsc2cc1-c1ccc(F)cc1 [Compound 17, (R)-2-(3-(difluoromethyl)-4,4,7,7-tetrafluoro-4,5,6,7-tetrahydro-1H-indazol-1-yl)-N-(2-(3,5-difluorophenyl)-1-(6-(4-fluorophenyl)thiazolo[4,5-b]pyridin-5-yl)ethyl)acetamide]"
2,254 nM,"NC(=O)c1cc(-c2cc3sc(N4CCOCC4)nc3nc2C(Cc2cc(F)cc(F)c2)NC(=O)Cn2nc(C(F)F)c3c2C(F)(F)CCC3(F)F)ccc1F (stereo not shown) [Compound 18, 5-(5-(1-(2-(3-(difluoromethyl)-4,4,7,7-tetrafluoro-4,5,6,7-tetrahydro-1H-indazol-1-yl)acetamido)-2-(3,5-difluorophenyl)ethyl)-2-morpholinothiazolo[4,5-b]pyridin-6-yl)-2-fluorobenzamide]"
3,1050 nM,"Cc1cc(Nc2nc3nc(C(Cc4cc(F)cc(F)c4)NC(=O)Cn4nc(C(F)F)c5c4C(F)(F)CCC5(F)F)c(-c4ccc(F)c(C(N)=O)c4)cc3s2)[nH]n1 (stereo not shown) [Compound 19, 5-(5-(1-(2-(3-(difluoromethyl)-4,4,7,7-tetrafluoro-4,5,6,7-tetrahydro-1H-indazol-1-yl)acetamido)-2-(3,5-difluorophenyl)ethyl)-2-((3-methyl-1H-pyrazol-5-yl)amino)thiazolo[4,5-b]pyridin-6-yl)-2-fluorobenzamide]"
4,303 nM,"CN(C)CCNc1nc2nc(C(Cc3cc(F)cc(F)c3)NC(=O)Cn3nc(C(F)F)c4c3C(F)(F)CCC4(F)F)c(-c3ccc(F)c(C(N)=O)c3)cc2s1 (stereo not shown) [Compound 20, 5-(5-(1-(2-(3-(difluoromethyl)-4,4,7,7-tetrafluoro-4,5,6,7-tetrahydro-TH-indazol-1-yl)acetamido)-2-(3,5-difluorophenyl)ethyl)-2-((2-(dimethylamino)ethyl)amino)thiazolo[4,5-b]pyridin-6-yl)-2-fluorobenzamide]"
5,≥ 53200 nM,"CN(C)CCNc1nc2nc(C(Cc3cc(F)cc(F)c3)NC(=O)Cn3nc(C(F)F)c4c3C(F)(F)CCC4(F)F)c(-c3ccc(F)c(C#N)c3)cc2s1 (stereo not shown) [Compound 21, N-(1-(6-(3-cyano-4-fluorophenyl)-2-((2-(dimethylamino)ethyl)amino)thiazolo[4,5-b]pyridin-5-yl)-2-(3,5-difluorophenyl)ethyl)-2-(3-(difluoromethyl)-4,4,7,7-tetrafluoro-4,5,6,7-tetrahydro-1H-indazol-1-yl)acetamide]"
6,184 nM,"CC(C)(O)C#CC1(Cl)Nc2nc(C(Cc3cc(F)cc(F)c3)NC(=O)Cn3nc(C(F)F)c4c3C(F)(F)CCC4(F)F)c(-c3ccc(F)c(C(N)=O)c3)cc2S1 (stereo not shown) [Compound 22, 5-(2-chloro-5-(1-(2-(3-(difluoromethyl)-4,4,7,7-tetrafluoro-4,5,6,7-tetrahydro-1H-indazol-1-yl)acetamido)-2-(3,5-difluorophenyl)ethyl)-2-(3-hydroxy-3-methylbut-1-yn-1-yl)-2,3-dihydrothiazolo[4,5-b]pyridin-6-yl)-2-fluorobenzamide]"
7,1930 nM,"O=C(Cn1nc(C(F)F)c2c1C(F)(F)[C@@H]1C[C@H]21)N[C@@H](Cc1cc(F)cc(F)c1)c1ccc2sc(-c3ccc4c(c3)C(=O)NC4)nc2n1 [Compound 23-1, 2-((3bS,4aR)-3-(difluoromethyl)-5,5-difluoro-3b,4,4a,5-tetrahydro-1H-cyclopropa[3,4]cyclopenta[1,2-c]pyrazol-1-yl)-N—((S)-2-(3,5-difluorophenyl)-1-(2-(3-oxoisoindolin-5-yl)thiazolo[4,5-b]pyridin-5-yl)ethyl)acetamide]"
8,984 nM,"CSc1nc2nc([C@H](Cc3cc(F)cc(F)c3)NC(=O)Cn3nc(C(F)F)c4c3C(F)(F)[C@@H]3C[C@H]43)c(-c3ccc4c(c3)C(=O)NC4)cc2s1 [Compound 23-2, 2-((3bS,4aR)-3-(difluoromethyl)-5,5-difluoro-3b,4,4a,5-tetrahydro-1H-cyclopropa[3,4]cyclopenta[1,2-c]pyrazol-1-yl)-N—((S)-2-(3,5-difluorophenyl)-1-(2-(methylthio)-6-(3-oxoisoindolin-5-yl)thiazolo[4,5-b]pyridin-5-yl)ethyl)acetamide]"
9,32.7 nM,"NC(=O)c1cc(-c2cc3sc(N4CCN(C5COC5)CC4)nc3nc2[C@H](Cc2cc(F)cc(F)c2)NC(=O)Cn2nc(C(F)(F)F)c3c2C(F)(F)[C@@H]2C[C@H]32)ccc1F [Compound 24, 5-(5-((S)-1-(2-((3bS,4aR)-5,5-difluoro-3-(trifluoromethyl)-3b,4,4a,5-tetrahydro-1H-cyclopropa[3,4]cyclopenta[1,2-c]pyrazol-1-yl)acetamido)-2-(3,5-difluorophenyl)ethyl)-2-(4-(oxetan-3-yl)piperazin-1-yl)thiazolo[4,5-b]pyridin-6-yl)-2-fluorobenzamide]"
10,111 nM,"NC(=O)c1cc(-c2cc3sc(N4CCN(c5cncnc5)CC4)nc3nc2[C@H](Cc2cc(F)cc(F)c2)NC(=O)Cn2nc(C(F)(F)F)c3c2C(F)(F)[C@@H]2C[C@H]32)ccc1F [Compound 25, 5-(5-((S)-1-(2-((3bS,4aR)-5,5-difluoro-3-(trifluoromethyl)-3b,4,4a,5-tetrahydro-1H-cyclopropa[3,4]cyclopenta[1,2-c]pyrazol-1-yl)acetamido)-2-(3,5-difluorophenyl)ethyl)-2-(4-(pyrimidin-5-yl)piperazin-1-yl)thiazolo[4,5-b]pyridin-6-yl)-2-fluorobenzamide]"
11,114 nM,"NC(=O)c1cc(-c2cc3sc(N4CCN(c5ccncc5)CC4)nc3nc2[C@H](Cc2cc(F)cc(F)c2)NC(=O)Cn2nc(C(F)(F)F)c3c2C(F)(F)[C@@H]2C[C@H]32)ccc1F [Compound 26, 5-(5-((S)-1-(2-((3bS,4aR)-5,5-difluoro-3-(trifluoromethyl)-3b,4,4a,5-tetrahydro-1H-cyclopropa[3,4]cyclopenta[1,2-c]pyrazol-1-yl)acetamido)-2-(3,5-difluorophenyl)ethyl)-2-(4-(pyridin-4-yl)piperazin-1-yl)thiazolo[4,5-b]pyridin-6-yl)-2-fluorobenzamide]"
12,52.3 nM,"NC(=O)c1cc(-c2cc3sc(N4C[C@@H]5C[C@H]4CN5C4COC4)nc3nc2[C@H](Cc2cc(F)cc(F)c2)NC(=O)Cn2nc(C(F)(F)F)c3c2C(F)(F)[C@@H]2C[C@H]32)ccc1F [Compound 27, 5-(5-((S)-1-(2-((3bS,4aR)-5,5-difluoro-3-(trifluoromethyl)-3b,4,4a,5-tetrahydro-1H-cyclopropa[3,4]cyclopenta[1,2-c]pyrazol-1-yl)acetamido)-2-(3,5-difluorophenyl)ethyl)-2-((1S,4S)-5-(oxetan-3-yl)-2,5-diazabicyclo[2.2.1]heptan-2-yl)thiazolo[4,5-b]pyridin-6-yl)-2-fluorobenzamide]"
13,300 nM,"NC(=O)c1cc(-c2cc3sc(N4CCN(c5ccc(-c6ncc[nH]6)cc5)CC4)nc3nc2[C@H](Cc2cc(F)cc(F)c2)NC(=O)Cn2nc(C(F)(F)F)c3c2C(F)(F)[C@@H]2C[C@H]32)ccc1F [Compound 28-1, 5-(2-(4-(4-(1H-imidazol-2-yl)phenyl)piperazin-1-yl)-5-((S)-1-(2-((3bS,4aR)-5,5-difluoro-3-(trifluoromethyl)-3b,4,4a,5-tetrahydro-1H-cyclopropa[3,4]cyclopenta[1,2-c]pyrazol-1-yl)acetamido)-2-(3,5-difluorophenyl)ethyl)thiazolo[4,5-b]pyridin-6-yl)-2-fluorobenzamide]"
14,121 nM,"NC(=O)c1cc(-c2cc3sc(N4CCC5(CC4)CNC(=O)O5)nc3nc2[C@H](Cc2cc(F)cc(F)c2)NC(=O)Cn2nc(C(F)(F)F)c3c2C(F)(F)[C@@H]2C[C@H]32)ccc1F [Compound 29, 5-(5-((S)-1-(2-((3bS,4aR)-5,5-difluoro-3-(trifluoromethyl)-3b,4,4a,5-tetrahydro-1H-cyclopropa[3,4]cyclopenta[1,2-c]pyrazol-1-yl)acetamido)-2-(3,5-difluorophenyl)ethyl)-2-(2-oxo-1-oxa-3,8-diazaspiro[4.5]decan-8-yl)thiazolo[4,5-b]pyridin-6-yl)-2-fluorobenzamide]"
15,47.3 nM,"CC1CN(c2nc3nc([C@H](Cc4cc(F)cc(F)c4)NC(=O)Cn4nc(C(F)(F)F)c5c4C(F)(F)[C@@H]4C[C@H]54)c(-c4ccc(F)c(C(N)=O)c4)cc3s2)CC(C)N1C1COC1 (stereo partly drawn) [Compound 30, 5-(5-((S)-1-(2-((3bS,4aR)-5,5-difluoro-3-(trifluoromethyl)-3b,4,4a,5-tetrahydro-1H-cyclopropa[3,4]cyclopenta[1,2-c]pyrazol-1-yl)acetamido)-2-(3,5-difluorophenyl)ethyl)-2-(3,5-dimethyl-4-(oxetan-3-yl)piperazin-1-yl)thiazolo[4,5-b]pyridin-6-yl)-2-fluorobenzamide]"

row,Structure (SMILES),EC50
1,"C[Si](C)(C)CCn1ccnc1-c1ccc(N2CCN(c3nc4nc([C@H](Cc5cc(F)cc(F)c5)NC(=O)Cn5nc(C(F)(F)F)c6c5C(F)(F)[C@@H]5C[C@H]65)c(-c5ccc(F)c(C(N)=O)c5)cc4s3)CC2)cc1 [Compound 28-2, 5-(5-((S)-1-(2-((3bS,4aR)-5,5-difluoro-3-(trifluoromethyl)-3b,4,4a,5-tetrahydro-1H-cyclopropa[3,4]cyclopenta[1,2-c]pyrazol-1-yl)acetamido)-2-(3,5-difluorophenyl)ethyl)-2-(4-(4-(1-(2-(trimethylsilyl)ethyl)-1H-imidazol-2-yl)phenyl)piperazin-1-yl)thiazolo[4,5-b]pyridin-6-yl)-2-fluorobenzamide]",≥ 53200 nM
